Laboratory results taken from ChEMBL document CHEMBL5465560, “Selectivity Literature for EUbOPEN Chemogenomic Library” (2024).

How the values were obtained:
SRSF protein kinase 1 = SRSF protein kinase 1 (Homo sapiens, UniProt Q96SB4); experiment: Selectivity interaction (KinomeScan (DiscoverX)) EUB0000229b SRPK1; conditions: at 10 µM
[1] = biological target: Protein-tyrosine kinase 6 (Homo sapiens, UniProt Q13882); experiment: Selectivity interaction (KinomeScan (DiscoverX)) EUB0001079a PTK6; conditions: at 1 µM
[2] = biological target: T1, Serine/threonine-protein kinase haspin (Homo sapiens) (UniProt Q8TF76); experiment: Selectivity interaction (Adapta Assay) EUB0001632a GSG2; conditions: at 10 µM
T1 sequence (whole entry): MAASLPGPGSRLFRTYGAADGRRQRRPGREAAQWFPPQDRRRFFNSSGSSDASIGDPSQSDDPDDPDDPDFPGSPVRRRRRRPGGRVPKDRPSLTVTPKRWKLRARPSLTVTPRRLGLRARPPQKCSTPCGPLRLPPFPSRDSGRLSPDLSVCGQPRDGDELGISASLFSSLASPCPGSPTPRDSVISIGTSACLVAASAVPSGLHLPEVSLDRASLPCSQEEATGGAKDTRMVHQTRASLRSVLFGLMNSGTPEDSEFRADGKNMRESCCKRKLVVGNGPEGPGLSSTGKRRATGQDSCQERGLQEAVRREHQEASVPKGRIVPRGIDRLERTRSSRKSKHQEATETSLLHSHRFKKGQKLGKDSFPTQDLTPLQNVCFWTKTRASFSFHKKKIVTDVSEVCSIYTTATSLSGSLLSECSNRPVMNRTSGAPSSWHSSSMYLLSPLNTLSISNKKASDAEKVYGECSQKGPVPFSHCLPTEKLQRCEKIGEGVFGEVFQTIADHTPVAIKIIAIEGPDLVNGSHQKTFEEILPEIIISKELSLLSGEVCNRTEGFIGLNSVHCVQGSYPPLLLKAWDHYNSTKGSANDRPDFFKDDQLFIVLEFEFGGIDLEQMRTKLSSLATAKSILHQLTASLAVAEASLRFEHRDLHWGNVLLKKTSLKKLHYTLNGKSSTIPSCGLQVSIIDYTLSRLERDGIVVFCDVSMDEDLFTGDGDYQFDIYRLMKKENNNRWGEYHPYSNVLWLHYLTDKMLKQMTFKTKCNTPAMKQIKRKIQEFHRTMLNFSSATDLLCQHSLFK

[3] = biological target: MAP kinase-activated protein kinase 2 (Homo sapiens, UniProt P49137); experiment: Selectivity interaction (Kinase panel (Z-LYTE Assay)) EUB0001632a MAPKAPK2; conditions: at 10 µM
Aurora kinase B = Aurora kinase B (Homo sapiens, UniProt Q96GD4); experiment: Selectivity interaction (KinomeScan (DiscoverX)) EUB0001049a AURKB; conditions: at 1 µM
Chain of Aurora kinase B (Q96GD4 whole entry): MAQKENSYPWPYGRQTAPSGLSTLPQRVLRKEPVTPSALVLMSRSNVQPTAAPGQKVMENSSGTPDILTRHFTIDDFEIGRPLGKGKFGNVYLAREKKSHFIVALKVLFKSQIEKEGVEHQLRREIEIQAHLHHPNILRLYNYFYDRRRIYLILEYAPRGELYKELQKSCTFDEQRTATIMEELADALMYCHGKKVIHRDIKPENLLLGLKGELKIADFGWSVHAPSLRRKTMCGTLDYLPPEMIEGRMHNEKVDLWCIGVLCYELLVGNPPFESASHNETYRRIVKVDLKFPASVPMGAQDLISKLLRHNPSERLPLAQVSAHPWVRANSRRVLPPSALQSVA

[4] = biological target: Mitogen-activated protein kinase 1 (Homo sapiens, UniProt P28482); experiment: Selectivity interaction (Millipore kinase profiler) EUB0000124b MAPK1; conditions: at 10 µM
Chain of Mitogen-activated protein kinase 1 (P28482 whole entry): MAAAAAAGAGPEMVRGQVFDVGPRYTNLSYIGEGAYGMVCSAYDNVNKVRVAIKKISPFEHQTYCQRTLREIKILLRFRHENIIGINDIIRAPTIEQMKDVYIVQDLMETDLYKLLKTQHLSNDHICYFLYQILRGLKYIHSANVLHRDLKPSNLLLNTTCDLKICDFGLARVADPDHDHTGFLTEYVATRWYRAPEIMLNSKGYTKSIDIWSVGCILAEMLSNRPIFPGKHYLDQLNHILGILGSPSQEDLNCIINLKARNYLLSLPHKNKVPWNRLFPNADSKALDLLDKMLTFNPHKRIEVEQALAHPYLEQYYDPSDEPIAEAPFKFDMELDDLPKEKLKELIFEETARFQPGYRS

[5] = biological target: Homeodomain-interacting protein kinase 1 (Homo sapiens, UniProt Q86Z02); experiment: Selectivity interaction (Upstate Kinase Profiler service (Millipore)) EUB0000056c HIPK1; conditions: at 1 µM
Chain of Homeodomain-interacting protein kinase 1 (Q86Z02 whole entry, looked up): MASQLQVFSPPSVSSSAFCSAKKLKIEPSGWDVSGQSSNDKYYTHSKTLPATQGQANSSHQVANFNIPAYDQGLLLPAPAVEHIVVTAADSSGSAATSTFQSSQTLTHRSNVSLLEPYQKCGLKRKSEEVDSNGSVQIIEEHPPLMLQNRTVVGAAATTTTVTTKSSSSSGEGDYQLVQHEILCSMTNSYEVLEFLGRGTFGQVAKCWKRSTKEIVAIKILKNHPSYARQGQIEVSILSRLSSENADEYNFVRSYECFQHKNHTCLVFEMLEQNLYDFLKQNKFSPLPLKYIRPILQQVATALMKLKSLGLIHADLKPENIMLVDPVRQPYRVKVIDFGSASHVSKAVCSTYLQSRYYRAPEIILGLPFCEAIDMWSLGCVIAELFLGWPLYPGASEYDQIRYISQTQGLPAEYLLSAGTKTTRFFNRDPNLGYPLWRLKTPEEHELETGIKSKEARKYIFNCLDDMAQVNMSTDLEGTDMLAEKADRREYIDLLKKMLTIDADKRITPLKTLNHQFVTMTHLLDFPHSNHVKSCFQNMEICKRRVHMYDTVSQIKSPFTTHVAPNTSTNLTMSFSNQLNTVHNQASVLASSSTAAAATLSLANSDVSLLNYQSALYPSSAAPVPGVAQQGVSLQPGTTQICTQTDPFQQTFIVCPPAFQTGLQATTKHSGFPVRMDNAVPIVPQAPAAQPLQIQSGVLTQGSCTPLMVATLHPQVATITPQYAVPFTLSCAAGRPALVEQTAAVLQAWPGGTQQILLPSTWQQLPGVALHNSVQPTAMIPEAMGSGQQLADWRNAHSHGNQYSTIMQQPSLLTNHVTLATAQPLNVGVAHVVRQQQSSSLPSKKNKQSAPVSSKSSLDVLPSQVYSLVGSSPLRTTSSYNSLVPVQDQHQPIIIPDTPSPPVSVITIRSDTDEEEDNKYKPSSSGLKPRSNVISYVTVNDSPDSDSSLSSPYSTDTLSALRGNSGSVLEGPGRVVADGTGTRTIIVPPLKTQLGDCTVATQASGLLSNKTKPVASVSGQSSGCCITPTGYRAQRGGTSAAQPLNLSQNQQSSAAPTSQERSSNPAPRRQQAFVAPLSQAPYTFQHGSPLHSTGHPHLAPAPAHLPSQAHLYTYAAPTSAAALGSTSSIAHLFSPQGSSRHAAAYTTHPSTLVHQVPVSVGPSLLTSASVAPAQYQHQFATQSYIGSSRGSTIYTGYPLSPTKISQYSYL

[6] = biological target: Cyclin-dependent kinase 5/CDK5 activator 1 (Homo sapiens) (UniProt Q00535+Q15078); experiment: Selectivity interaction (Upstate Kinase Profiler service (Millipore)) EUB0000056c CDK5; type: protein-complex assay; conditions: at 1 µM
Chain of Cyclin-dependent kinase 5/CDK5 activator 1 (Homo sapiens) (Q00535 whole entry): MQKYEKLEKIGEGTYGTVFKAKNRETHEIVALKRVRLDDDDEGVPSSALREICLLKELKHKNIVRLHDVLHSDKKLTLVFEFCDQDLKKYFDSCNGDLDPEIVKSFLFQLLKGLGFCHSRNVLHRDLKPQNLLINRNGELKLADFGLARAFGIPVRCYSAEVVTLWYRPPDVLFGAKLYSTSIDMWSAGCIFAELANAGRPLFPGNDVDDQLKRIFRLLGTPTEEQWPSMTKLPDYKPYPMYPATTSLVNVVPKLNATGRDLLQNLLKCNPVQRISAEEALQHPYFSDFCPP
Chain of Cyclin-dependent kinase 5/CDK5 activator 1 (Homo sapiens) (Q15078 99-307 partner limits assumed): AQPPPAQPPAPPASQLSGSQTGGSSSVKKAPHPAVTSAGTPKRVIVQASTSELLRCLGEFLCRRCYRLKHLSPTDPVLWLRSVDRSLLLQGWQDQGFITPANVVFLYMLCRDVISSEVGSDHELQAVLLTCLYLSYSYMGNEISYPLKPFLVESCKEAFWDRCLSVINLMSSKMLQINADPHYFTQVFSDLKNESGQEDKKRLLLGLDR

Endothelin-1 receptor = Endothelin-1 receptor (Homo sapiens, UniProt P25101); experiment: Selectivity interaction (Endothelin A receptor binding assay, human recombinant ) EUB0000877a EDNRA
[7] = biological target: T2, Serine/threonine-protein kinase Nek11 (Homo sapiens) (UniProt Q8NG66); experiment: Selectivity interaction (ProQinase) EUB0000171b NEK11
T2 sequence (whole entry): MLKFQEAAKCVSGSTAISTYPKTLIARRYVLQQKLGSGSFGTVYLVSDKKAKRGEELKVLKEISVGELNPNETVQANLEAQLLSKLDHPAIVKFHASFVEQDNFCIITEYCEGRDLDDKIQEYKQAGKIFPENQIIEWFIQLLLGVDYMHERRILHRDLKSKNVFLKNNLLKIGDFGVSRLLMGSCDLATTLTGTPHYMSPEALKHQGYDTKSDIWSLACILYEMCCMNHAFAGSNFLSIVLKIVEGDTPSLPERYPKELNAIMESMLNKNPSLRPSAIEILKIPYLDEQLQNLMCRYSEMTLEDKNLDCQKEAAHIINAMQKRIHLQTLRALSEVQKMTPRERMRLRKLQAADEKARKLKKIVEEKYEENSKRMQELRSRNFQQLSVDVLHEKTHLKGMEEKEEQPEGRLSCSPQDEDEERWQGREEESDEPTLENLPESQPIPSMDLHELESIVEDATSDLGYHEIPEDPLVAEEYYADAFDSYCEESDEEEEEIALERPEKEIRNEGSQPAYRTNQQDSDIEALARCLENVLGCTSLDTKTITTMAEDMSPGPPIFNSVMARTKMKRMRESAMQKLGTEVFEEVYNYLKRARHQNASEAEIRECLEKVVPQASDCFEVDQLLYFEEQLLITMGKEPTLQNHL

[8] = biological target: Cyclin-dependent kinase 2 (Homo sapiens, UniProt P24941); experiment: Selectivity interaction (KinomeScan (DiscoverX)) EUB0000607a CDK2; conditions: at 10 µM
[9] = biological target: Non-receptor tyrosine-protein kinase TYK2 (Homo sapiens, UniProt P29597); experiment: Selectivity interaction (KinomeScan (DiscoverX)) EUB0000092b TYK2; conditions: at 10 µM
Chain of Non-receptor tyrosine-protein kinase TYK2 (P29597 whole entry): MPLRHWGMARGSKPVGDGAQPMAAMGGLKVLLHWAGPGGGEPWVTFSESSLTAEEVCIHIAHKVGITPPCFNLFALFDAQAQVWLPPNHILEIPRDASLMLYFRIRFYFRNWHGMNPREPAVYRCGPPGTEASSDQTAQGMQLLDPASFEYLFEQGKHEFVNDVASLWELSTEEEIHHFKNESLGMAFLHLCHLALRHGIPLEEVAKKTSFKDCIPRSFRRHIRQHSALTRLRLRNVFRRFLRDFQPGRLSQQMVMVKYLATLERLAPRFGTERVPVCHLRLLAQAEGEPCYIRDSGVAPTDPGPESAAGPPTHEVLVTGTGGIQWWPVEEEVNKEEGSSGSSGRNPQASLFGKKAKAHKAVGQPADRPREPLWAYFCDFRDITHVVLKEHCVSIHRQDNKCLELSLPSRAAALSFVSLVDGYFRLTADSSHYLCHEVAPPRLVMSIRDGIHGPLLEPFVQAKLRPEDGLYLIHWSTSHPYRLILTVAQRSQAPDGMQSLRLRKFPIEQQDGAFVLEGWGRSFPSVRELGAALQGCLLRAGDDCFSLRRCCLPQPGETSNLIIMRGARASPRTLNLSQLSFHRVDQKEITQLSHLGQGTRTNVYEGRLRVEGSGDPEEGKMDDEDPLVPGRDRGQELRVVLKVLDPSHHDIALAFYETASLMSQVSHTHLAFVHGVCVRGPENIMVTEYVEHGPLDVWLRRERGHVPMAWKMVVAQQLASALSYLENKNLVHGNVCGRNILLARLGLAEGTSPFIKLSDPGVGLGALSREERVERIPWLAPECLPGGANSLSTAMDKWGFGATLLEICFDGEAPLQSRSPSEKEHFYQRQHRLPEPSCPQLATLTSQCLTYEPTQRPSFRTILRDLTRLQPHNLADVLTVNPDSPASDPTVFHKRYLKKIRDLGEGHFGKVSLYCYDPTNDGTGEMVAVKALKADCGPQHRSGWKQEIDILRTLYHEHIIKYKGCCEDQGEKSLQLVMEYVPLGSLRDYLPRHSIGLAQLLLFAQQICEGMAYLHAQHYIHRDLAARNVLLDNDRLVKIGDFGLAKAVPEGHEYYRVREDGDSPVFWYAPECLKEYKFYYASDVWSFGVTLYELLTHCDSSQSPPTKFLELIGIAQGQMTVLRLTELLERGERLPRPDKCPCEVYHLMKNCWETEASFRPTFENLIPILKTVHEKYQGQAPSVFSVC

[10] = biological target: T3, Uncharacterized serine/threonine-protein kinase SBK3 (Homo sapiens) (UniProt P0C264); experiment: Selectivity interaction (KinomeScan (DiscoverX)) EUB0000092b SBK3; conditions: at 10 µM
T3 sequence (whole entry): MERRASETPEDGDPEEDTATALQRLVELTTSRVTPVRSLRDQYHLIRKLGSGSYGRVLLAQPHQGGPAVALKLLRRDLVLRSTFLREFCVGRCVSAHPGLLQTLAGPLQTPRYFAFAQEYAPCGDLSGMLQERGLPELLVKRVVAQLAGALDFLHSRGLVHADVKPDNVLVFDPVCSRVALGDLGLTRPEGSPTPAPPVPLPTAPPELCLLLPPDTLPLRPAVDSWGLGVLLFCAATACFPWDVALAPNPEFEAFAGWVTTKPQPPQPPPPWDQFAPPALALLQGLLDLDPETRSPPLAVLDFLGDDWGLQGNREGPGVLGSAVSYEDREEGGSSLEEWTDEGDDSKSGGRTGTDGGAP

[11] = biological target: Serine/threonine-protein kinase 33 (Homo sapiens) (UniProt Q9BYT3); experiment: Selectivity interaction (Ambit KINOMEscan and KiNATiv profiling in Jurkat cells) EUB0000090b STK33; type: cell-based; conditions: at 1 µM
Chain of Serine/threonine-protein kinase 33 (Homo sapiens) (Q9BYT3 whole entry, looked up): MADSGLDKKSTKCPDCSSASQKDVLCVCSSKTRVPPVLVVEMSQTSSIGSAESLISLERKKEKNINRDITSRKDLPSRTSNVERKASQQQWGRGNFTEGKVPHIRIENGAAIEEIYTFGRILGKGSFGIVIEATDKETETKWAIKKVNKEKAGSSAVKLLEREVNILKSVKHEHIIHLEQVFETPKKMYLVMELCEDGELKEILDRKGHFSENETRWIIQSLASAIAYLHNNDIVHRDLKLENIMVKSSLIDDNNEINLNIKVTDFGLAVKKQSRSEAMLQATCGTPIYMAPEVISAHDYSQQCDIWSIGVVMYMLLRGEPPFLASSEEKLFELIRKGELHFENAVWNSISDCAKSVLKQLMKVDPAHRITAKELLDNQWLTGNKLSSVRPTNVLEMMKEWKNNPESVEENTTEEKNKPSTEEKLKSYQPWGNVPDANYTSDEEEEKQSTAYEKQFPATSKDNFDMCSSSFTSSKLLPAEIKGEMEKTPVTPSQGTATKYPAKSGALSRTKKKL

Chain of SRSF protein kinase 1 (Q96SB4 whole entry): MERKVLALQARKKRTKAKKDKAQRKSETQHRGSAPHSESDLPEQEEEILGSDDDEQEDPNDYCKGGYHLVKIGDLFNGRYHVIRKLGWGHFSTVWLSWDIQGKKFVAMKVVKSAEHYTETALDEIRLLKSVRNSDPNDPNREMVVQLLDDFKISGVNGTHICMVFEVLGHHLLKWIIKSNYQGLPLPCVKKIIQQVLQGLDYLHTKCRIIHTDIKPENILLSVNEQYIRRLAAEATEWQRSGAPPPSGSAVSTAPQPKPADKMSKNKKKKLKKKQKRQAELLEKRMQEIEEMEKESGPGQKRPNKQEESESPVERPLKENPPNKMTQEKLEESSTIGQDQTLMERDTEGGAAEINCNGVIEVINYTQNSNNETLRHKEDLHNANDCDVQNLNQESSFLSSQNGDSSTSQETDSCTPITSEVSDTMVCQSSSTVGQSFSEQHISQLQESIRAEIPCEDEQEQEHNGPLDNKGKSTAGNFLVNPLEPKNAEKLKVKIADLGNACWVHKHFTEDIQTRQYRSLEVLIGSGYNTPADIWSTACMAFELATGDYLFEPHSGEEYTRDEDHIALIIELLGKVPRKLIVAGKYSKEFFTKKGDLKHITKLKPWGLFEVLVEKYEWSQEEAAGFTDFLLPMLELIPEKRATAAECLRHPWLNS

Question: How did the % binding (SRSF protein kinase 1) turn out when `COc1cc(N(C)c2ccnc3ccc(C(F)(F)F)cc23)cc(OC)c1OC` was run?
Answer: 92%

Question: How did the % of control [1] turn out when `Nc1cnc(N2CCc3cc(S(=O)(=O)Nc4c(F)cc(Cl)cc4F)cc(N4CCCC4=O)c32)nc1` [TP-020n] was run?
Answer: 100%

Question: What does the source list for `Cn1cc(-n2cnc3c(NCc4nc5cc(Cl)c(Cl)cc5[nH]4)nc(N4CCOCC4)nc32)cn1`?
Answer: % of inhibition [2]: 45%; % of control [3]: -2.67%

Question: `COc1cc(Nc2nc(C)cc(-c3cnn4nc(OC)ccc34)n2)cc(C(F)(F)F)c1` was tested. Which % of control (Aurora kinase B) did it give?
Answer: 85%

Question: `CC(=O)Nc1cccc(-n2c(=O)n(C3CC3)c(=O)c3c(Nc4ccc(I)cc4F)n(C)c(=O)c(C)c32)c1` was tested. Which % of control [4] did it give?
Answer: 108%

Question: What does the source list for `Cc1ccc(-c2ccc3c(ccc4sc5c(c43)NC[C@@H](C)NC5=O)n2)cn1`?
Answer: % of inhibition [5]: 7%; % of inhibition [6]: 62%

Question: How did the IC50 (Endothelin-1 receptor) turn out when `CCC(=O)N1CC[C@H](Nc2ncnc3c2CN(c2cnc(OC)c(C(F)(F)F)c2)CC3)C1` [LENIOLISIB] was run?
Answer: > 30 µM

Question: What does the source list for `C=CC(=O)Nc1cccc(C(=O)Nc2ccc(Nc3cc(-c4[nH]c(SC)nc4C)ccn3)cc2)c1`?
Answer: % of control ([7]; at 1 µM): 103%; % of control ([7]; at 5 µM): 87%

Question: With `CNC(=O)Nc1ccc(-c2nc(N3CC4CCC(C3)O4)c3cnn(C4CCC5(CC4)OCCO5)c3n2)cc1` as the compound, how does the % of control [8] read?
Answer: 92%

Question: Which results are given for `CCC(=O)N1CCN(c2ccc(-n3c(=O)ccc4cnc5ccc(-c6cnc7ccccc7c6)cc5c43)cc2C(F)(F)F)CC1`?
Answer: % of control [9]: 70%; % of control [10]: 94%

Question: How did the % of control [11] turn out when `CN(C)C/C=C/C(=O)Nc1ccc(C(=O)N2CCCC(Nc3ncc(Cl)c(-c4c[nH]c5ccccc45)n3)C2)cc1` (stereo not given) was run?
Answer: 90%
